Tested on: NCI-H841 complex tumor spheroid viability
Test: Anticancer human tumor NCI-H841 cell line growth inhibition;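 also: spheroids exposed to compounds for 7 days before readout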;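 as to viability, T/C: 100% = DMSO vehicle control wells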
Conditions: for IC50: curve of first compound; for viability, T/C: stronger effect = lower value
How it was run: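 Complex spheroids of malignant cells with endothelial cells and mesenchymal stem cells; agents alone or combined, from near clinical Cmax (or 10 microM if unknown) down in half-log steps, 0.25% DMSO final.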

[1] = second compound 30 pM, first compound 0.00949 µM
[2] = second compound 30 pM, first compound 0.03 µM
[3] = second compound 30 pM, first compound 0.0949 µM
[4] = second compound 30 pM, first compound 0.3 µM
[5] = second compound 30 pM, first compound 0.949 µM
[6] = second compound 30 pM, first compound 3 µM
[7] = second compound 94.9 pM, first compound 0.00949 µM
[8] = second compound 94.9 pM, first compound 0.03 µM
[9] = second compound 94.9 pM, first compound 0.0949 µM
[10] = second compound 94.9 pM, first compound 0.3 µM
[11] = second compound 94.9 pM, first compound 0.949 µM
[12] = second compound 94.9 pM, first compound 3 µM
[13] = second compound 0.0003 µM, first compound 0.00949 µM
[14] = second compound 0.0003 µM, first compound 0.03 µM
[15] = second compound 0.0003 µM, first compound 0.0949 µM
[16] = second compound 0.0003 µM, first compound 0.3 µM
[17] = second compound 0.0003 µM, first compound 0.949 µM
[18] = second compound 0.0003 µM, first compound 3 µM
[19] = second compound 0.000949 µM, first compound 0.00949 µM
[20] = second compound 0.000949 µM, first compound 0.03 µM
[21] = second compound 0.000949 µM, first compound 0.0949 µM
[22] = second compound 0.000949 µM, first compound 0.3 µM
[23] = second compound 0.000949 µM, first compound 0.949 µM
[24] = second compound 0.000949 µM, first compound 3 µM
[25] = second compound 0.003 µM, first compound 0.00949 µM
[26] = second compound 0.003 µM, first compound 0.03 µM
[27] = second compound 0.003 µM, first compound 0.0949 µM
[28] = second compound 0.003 µM, first compound 0.3 µM
[29] = second compound 0.003 µM, first compound 0.949 µM
[30] = second compound 0.003 µM, first compound 3 µM

Row | SMILES | IC50 (second compound 30 pM) | IC50 (second compound 94.9 pM) | IC50 (second compound 0.0003 µM) | IC50 (second compound 0.000949 µM) | IC50 (second compound 0.003 µM) | viability, T/C [3] | viability, T/C [4] | viability, T/C [5] | viability, T/C [6] | viability, T/C [9] | viability, T/C [10] | viability, T/C [11] | viability, T/C [12] | viability, T/C [15] | viability, T/C [16] | viability, T/C [17] | viability, T/C [18] | viability, T/C [21] | viability, T/C [22] | viability, T/C [23] | other results
1 | CNCc1ccc(-c2cc(-c3nc(-c4ccc(S(=O)(=O)C(C)C)cc4)cnc3N)on2)cc1 + COc1cc2c(cc1O)CCNC21CSC2c3c(OC(C)=O)c(C)c4c(c3C(COC1=O)N1C(O)C3Cc5cc(C)c(OC)c(O)c5C(C21)N3C)OCO4 | 205 nM | 136 nM | < 9.49 nM | < 9.49 nM | < 9.49 nM | 86.8% | 31.6% | 7.14% | 1.78% | 66.2% | 13.6% | 2.49% | 1.05% | 7.38% | 1.78% | 1.69% | 0.41% | 1.25% | 0.59% | 0.5% | viability, T/C [1]: 97.6%; viability, T/C [2]: 99.6%; viability, T/C [7]: 93.8%; viability, T/C [8]: 92.6%; viability, T/C [13]: 44.8%; viability, T/C [14]: 28.3%; viability, T/C [19]: 2.86%; viability, T/C [20]: 2.26%; viability, T/C [24]: 0.09%; viability, T/C [25]: 0.1%; viability, T/C [26]: 0.1%; viability, T/C [27]: 0.09%; viability, T/C [28]: 0.1%; viability, T/C [29]: 0.09%; viability, T/C [30]: 0.15%
2 | Cc1sc2c(c1C)C(c1ccc(Cl)cc1)=NC(CC(=O)Nc1ccc(O)cc1)c1nnc(C)n1-2 (stereo not given) + COc1cc2c(cc1O)CCNC21CSC2c3c(OC(C)=O)c(C)c4c(c3C(COC1=O)N1C(O)C3Cc5cc(C)c(OC)c(O)c5C(C21)N3C)OCO4 | 515 nM | 291 nM | < 9.49 nM | < 9.49 nM | < 9.49 nM | 93.3% | 69.2% | 28.3% | 5.97% | 74.9% | 53.9% | 14.4% | 2.65% | 15.6% | 5.26% | 2.59% | 1.68% | 2.06% | 0.99% | 0.03% | viability, T/C [1]: 101%; viability, T/C [2]: 99.2%; viability, T/C [7]: 99.5%; viability, T/C [8]: 91.6%; viability, T/C [13]: 37.6%; viability, T/C [14]: 20.6%; viability, T/C [19]: 2.84%; viability, T/C [20]: 2.9%; viability, T/C [24]: 0.1%; viability, T/C [25]: 0.12%; viability, T/C [26]: 0.12%; viability, T/C [27]: 0.12%; viability, T/C [28]: 0.1%; viability, T/C [29]: 0.12%; viability, T/C [30]: 0.2%
3 | Cn1ncnc1[C@H]1c2n[nH]c(=O)c3cc(F)cc(c23)N[C@@H]1c1ccc(F)cc1 + COc1cc2c(cc1O)CCNC21CSC2c3c(OC(C)=O)c(C)c4c(c3C(COC1=O)N1C(O)C3Cc5cc(C)c(OC)c(O)c5C(C21)N3C)OCO4 | 514 nM | 252 nM | < 9.49 nM | < 9.49 nM | < 9.49 nM | 86.4% | 71.3% | 26.4% | 1.05% | 66.1% | 51.5% | 11% | 1.19% | 7.64% | 2.97% | 1.63% | 1.27% | 2.75% | 2.82% | 2.18% | viability, T/C [1]: 94%; viability, T/C [2]: 91.6%; viability, T/C [7]: 85.6%; viability, T/C [8]: 76.5%; viability, T/C [13]: 16.7%; viability, T/C [14]: 9.8%; viability, T/C [19]: 3.02%; viability, T/C [20]: 3.35%; viability, T/C [24]: 0.23%; viability, T/C [25]: 0.11%; viability, T/C [26]: 0.12%; viability, T/C [27]: 0.12%; viability, T/C [28]: 0.1%; viability, T/C [29]: 0.1%; viability, T/C [30]: 0.19%
4 | O=C(c1cc(Cc2n[nH]c(=O)c3ccccc23)ccc1F)N1CCN(C(=O)C2CC2)CC1 + COc1cc2c(cc1O)CCNC21CSC2c3c(OC(C)=O)c(C)c4c(c3C(COC1=O)N1C(O)C3Cc5cc(C)c(OC)c(O)c5C(C21)N3C)OCO4 | 4580 nM | 3050 nM | < 94.9 nM | < 94.9 nM | < 94.9 nM | 107% | 105% | 101% | 77% | 97.5% | 97.8% | 87.4% | 52.1% | 27.4% | 22.1% | 18.2% | 2.51% | 3.77% | 4.04% | 2.93% | viability, T/C (second compound 30 pM, first compound 9.49 µM): 3.12%; viability, T/C (second compound 30 pM, first compound 30 µM): 1.74%; viability, T/C (second compound 94.9 pM, first compound 9.49 µM): 1.93%; viability, T/C (second compound 94.9 pM, first compound 30 µM): 1.27%; viability, T/C (second compound 0.0003 µM, first compound 9.49 µM): 1.17%; viability, T/C (second compound 0.0003 µM, first compound 30 µM): 0.76%; viability, T/C [24]: 0.82%; viability, T/C (second compound 0.000949 µM, first compound 9.49 µM): 0.32%; viability, T/C (second compound 0.000949 µM, first compound 30 µM): 0.11%; viability, T/C [27]: 7.31%; viability, T/C [28]: 0.2%; viability, T/C [29]: 0.13%; viability, T/C [30]: 0.12%; viability, T/C (second compound 0.003 µM, first compound 9.49 µM): 0.14%; viability, T/C (second compound 0.003 µM, first compound 30 µM): 0.29%
